Earlier results as cited in patent publication US20250057810A1, “AQUEOUS MELATONIN FORMULATION” (AGB-Pharma AB, priority 2021, published 2025).

Details: in vivo

COc1ccc2[nH]cc(CCNC(C)=O)c2c1 [melatonin, N-acetyl-5-methoxytryptamine]
blood levels returning to normal daytime levels after administration: 6 to 8 h
